Reference: US20140374103A1, “TREATING AND RECYLCING OILFIELD WASTE WATER” (BAKER HUGHES INCORPORATED, priority 2013, published 2014)

Test system: bacteria in oilfield waste water
Conditions: 10 mL of 30 vol % hydrogen peroxide to 250 mL raw oilfield waste water (Sample A and Sample B), room temperature, stirred; before vs after treatment; FIGS. 4 and 5
Experimental: The number density of the bacteria present in the oilfield waste water is determined before or after introduction of the biocide, the oxidizer, or a combination thereof. Determining the number density of the bacteria is accomplished in various manners. In an embodiment, the number density of the bacteria is determined by particle sizing such as by light scattering. In another embodiment, a small volume of oilfield water is disposed on an agar plate or slant tube and subjected to microbiological counting methods. Alternatively, the number density of the bacteria is determined by quantifying an amount of bacterial adenosine triphosphate (ATP) in a sample of the oilfield waste water, wherein the ATP is retrieved from living bacterial cells. The sample size is a portion or all of the oilfield waste water. […] The ATP quantification is accomplished by lysing the bacterial cells using an enzyme to release ATP into the sample of the oilfield waste water. An assay for the amount of ATP includes introducing a luminescent enzyme such as firefly luciferase to the sample and thereafter collecting luminescence from the luminescent enzyme. […] Thereafter, the number density of bacteria in the oilfield waste water is calculated from the amount of bacterial ATP. […] An aliquot of Sample A and Sample B was collected and subjected to ATP quantification before and after treatment with the hydrogen peroxide.

Structure (SMILES): OO [hydrogen peroxide]
- number density of bacteria in the treated water: drastically decreases the number density of bacteria
